These results are taken from patent publication US9000045B2, “CETP activity inhibitors” (Japan Tobacco Inc., priority 1997, dated 2015).

For the first experiment, the target named is T1, CETP (Homo sapiens, UniProt P11597).
T1 sequence (P11597 18-493): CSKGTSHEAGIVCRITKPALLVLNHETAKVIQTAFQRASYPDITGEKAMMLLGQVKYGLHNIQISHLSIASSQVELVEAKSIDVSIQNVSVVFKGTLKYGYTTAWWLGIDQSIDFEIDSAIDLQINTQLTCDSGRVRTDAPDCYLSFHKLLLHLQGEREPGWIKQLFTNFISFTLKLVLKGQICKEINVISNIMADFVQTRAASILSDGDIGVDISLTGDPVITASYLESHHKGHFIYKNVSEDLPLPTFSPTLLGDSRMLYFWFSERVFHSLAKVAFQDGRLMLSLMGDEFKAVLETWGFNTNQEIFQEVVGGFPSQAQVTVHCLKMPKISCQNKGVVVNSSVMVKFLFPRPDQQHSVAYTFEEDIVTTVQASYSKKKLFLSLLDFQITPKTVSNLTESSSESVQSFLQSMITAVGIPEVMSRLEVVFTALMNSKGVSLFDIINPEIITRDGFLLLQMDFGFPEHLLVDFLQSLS
Nature of the experiment: Ex vivo CETP activity inhibitory effect of plasma from transgenic mice. Also on record: from tissue; host or cells: plasma of transgenic mice carrying the human CETP gene. Conditions: mouse, po; 10 mg/kg, p.o.; 6 hours after administration; transgenic mice with human CETP gene; read-out: CETP activity inhibitory rate in plasma from transgenic mouse. Here is the method: Potassium bromide (KBr) was added to the plasma of healthy subjects (40 ml) to adjust specific gravity to d=1.125 g/ml. Density gradient centrifugation (227,000×g, 4° C., 17 hours) was conducted to obtain a fraction with specific gravity d>1.125 g/ml (HDL3 fraction). The fraction thus obtained was dialyzed against a PBS solution [10 mM Na2HPO4/10 mM NaH2PO4/0.15 M NaCl/1 mM EDTA (pH 7.4)]. Then, tritium-labeled cholesterol (10 nM) (50.3 Ci/mM) was dissolved in 95% ethanol and added gradually to the above HDL3 fraction under stirring. The solution was incubated for 18 hours at 37° C. [Tritium-labeled cholesterol was esterified by this procedure by the action of lecithin:cholesterol acyltransferase (LCAT) present on the surface of HDL3 and taken up into the interior of HDL3 as tritium-labeled cholesterylester ([^3H]CE)]. After incubation, KBr was added and specific gravity was adjusted to d=1.21 g/ml. Density gradient centrifugation (227,000×g, 4° C., 17 hours) was conducted and the fraction with d<1.21 g/ml was harvested. The fraction thus obtained was dialyzed against the above PBS solution to obtain HDL3 that took up [^3H]CE ([^3H]CE-HDL3, specific gravity: 1.125<d<1.21, specific activity: 101,000 dpm/nM), which served as donor lipoprotein.
Physiological saline (specific gravity d=1.006 g/ml) was layered upon the plasma of healthy subjects (100 ml). Density gradient centrifugation (227,000×g, 4° C., 4 hours) was conducted and the fraction with specific gravity d>1.006 g/ml was harvested. KBr was added to the fraction thus obtained to adjust specific gravity to d=1.063 g/ml and density gradient centrifugation (227,000×g, 4° C., 20 hours) was conducted to harvest the fraction with specific gravity […]. The thus-obtained fraction was dialyzed against the above PBS solution to obtain fractions containing IDL and LDL (specific gravity: 1.006<d<1.063), which served as acceptor lipoprotein.
Samples were suspended in a 0.5% methylcellulose solution and administered orally using a plastic probe to transgenic mice having introduced human CETP gene (hereafter referred to as mice; prepared using the method described in Japanese Patent Application No. Hei 8-130660), which had been fasted overnight. Blood was collected before administration, and 6 hours after administration CETP activity in the plasma was determined using the following method.
Donor lipoprotein ([^3H]CE-HDL3, containing 0.21 μg cholesterol) obtained in the above (1), acceptor lipoprotein obtained in the above (2) (containing 21 μg of cholesterol), and 0.9 μl of mice plasma were added to microtubes. A total volume was adjusted to 600 μl/tube with a TBS solution [10 mM Tris/0.15 M NaCl (pH 7.4)]. The microtubes were incubated for 15 hours at 37° C. or 4° C. Then, an ice-cooled TBS solution (400 μl/tube) and a 0.3% dextran sulfate solution (100 μl/tube) containing 0.15 M magnesium chloride were added to the microtubes and mixed well. After allowing the microtubes to stand for 30 minutes at 4° C., centrifugation (8,000 rpm, 4° C., 10 minutes) was carried out and radioactivity of the resulting supernatant (HDL fraction) was determined with a scintillation counter.
For `CC(=O)Sc1ccccc1NC(=O)C1(CCC(C)C)CCCCC1` [Example 25, S[2-(1-isopentylcyclohexanecarbonylamino)phenyl]thioacetate], the inhibition at 10 mg/kg came to 19%.

Staying with this experiment, now noted: mouse, po; 30 mg/kg, p.o.; 6 hours after administration; transgenic mice with human CETP gene; read-out: CETP activity inhibitory rate in plasma from transgenic mouse.
Consider `CC(C)CCC1(C(=O)Nc2ccccc2SC(=O)CCl)CCCCC1` [Example 36], for which the inhibition at 30 mg/kg amounted to 19%. Still for that read-out and setting: the same measure for `CC(C)CC1(C(=O)Nc2ccccc2SC(=O)C(C)C)CCCCC1` [Example 27, S-[2-(1-isobutylcyclohexanecarbonylamino)phenyl]2-methylthiopropionate]: 31%.

As for `CC(C)CCC1(C(=O)Nc2ccccc2SC(=O)N(C(=O)Nc2ccccc2)c2ccccc2)CCCCC1` [Example 25-101], the inhibition at 30 mg/kg was 8%.

For the compound `CC(C)CCC1(C(=O)Nc2cc(Cl)ccc2SC(=O)C(C)(C)C)CCCCC1` [Example 76], the inhibition at 30 mg/kg worked out at 4%.

Consider `CC(=O)Sc1ccccc1NC(=O)C1(CCC(C)C)CCCCC1` [Example 25, S[2-(1-isopentylcyclohexanecarbonylamino)phenyl]thioacetate], for which the inhibition at 30 mg/kg came out at 45%. `Cc1cccc(NC(=O)C2(CCC(C)C)CCCCC2)c1S` [Example 23]: the inhibition at 30 mg/kg stood at 18%. The same measure, in the same setting: the same measure for `COc1ccc(SC(=O)C(C)(C)C)c(NC(=O)C2(CCC(C)C)CCCCC2)c1` [Example 78]: 11%.

The experiment is the same for the next values; noted with them: mouse, po; 100 mg/kg, p.o.; 6 hours after administration; transgenic mice with human CETP gene; read-out: CETP activity inhibitory rate in plasma from transgenic mouse.
Regarding `CC(=O)Sc1ccccc1NC(=O)C1(CCC(C)C)CCCCC1` [Example 25, S[2-(1-isopentylcyclohexanecarbonylamino)phenyl]thioacetate], the inhibition at 100 mg/kg was 52%.

The next experiment addresses T1, CETP. In words: In vitro CETP activity inhibitory effect in whole plasma. Type of experiment: biochemical. Also on record: Plasma containing [^3H]CE-HDL3 (600,000 dpm/ml) was prepared by adding donor lipoprotein obtained in the above (1) to plasma from healthy subjects; from tissue; host or cells: whole plasma of healthy subjects. The following applies: plasma from healthy subjects containing [3H]CE-HDL3, incubated 4 hours at 37° C.; read-out: CETP activity inhibition in whole plasma IC50. How it is done: The fraction thus obtained was dialyzed against a PBS solution [10 mM Na2HPO4/10 mM NaH2PO4/0.15 M NaCl/1 mM EDTA (pH 7.4)]. Then, tritium-labeled cholesterol (10 nM) (50.3 Ci/mM) was dissolved in 95% ethanol and added gradually to the above HDL3 fraction under stirring. The solution was incubated for 18 hours at 37° C. […] After incubation, KBr was added and specific gravity was adjusted to d=1.21 g/ml. […] A sample solution was prepared using a 1:1 solution of N-methylpyrrolidone and polyethyleneglycol 400 as a solvent. […] Based on the inhibition rate (%) of CETP activity, IC50 value of each sample was calculated.
One may read the IC50 as the midpoint of a concentration-inhibition curve. With `CC(C)CCC1(C(=O)Nc2ccccc2SC(=O)CCl)CCCCC1` [Example 36], the IC50 amounted to 16 µM. The same measure, in the same setting: the same measure for `CC(C)CC1(C(=O)Nc2ccccc2SC(=O)C(C)C)CCCCC1` [Example 27, S-[2-(1-isobutylcyclohexanecarbonylamino)phenyl]2-methylthiopropionate]: 7 µM; for `CC(C)CCC1(C(=O)Nc2ccccc2SC(=O)N(C(=O)Nc2ccccc2)c2ccccc2)CCCCC1` [Example 25-101]: 7 µM; for `CC(C)CCC1(C(=O)Nc2cc(Cl)ccc2SC(=O)C(C)(C)C)CCCCC1` [Example 76]: 18 µM. `CC(=O)Sc1ccccc1NC(=O)C1(CCC(C)C)CCCCC1` [Example 25, S[2-(1-isopentylcyclohexanecarbonylamino)phenyl]thioacetate]: the IC50 is 11 µM. As to `CC(C)CCC1(C(=O)Nc2ccccc2SC(=O)C2CCN(C)CC2)CCCC1` [Example 25-65], the IC50 came to 9 µM. In the case of `CC(=O)N[C@H](Cc1ccccc1)C(=O)Sc1cc(Cl)c(Cl)cc1NC(=O)C1(C)CCCCC1` [Example 66-11], the IC50 is 22 µM. For the compound `CCNC(=O)Sc1cc(Cl)c(Cl)cc1NC(=O)C1(C)CCCCC1` [Example 66-53], the IC50 is 15 µM. Turning to `CC(C)CCC1(C(=O)Nc2ccccc2SC(=O)c2ccc(C(=O)Sc3ccccc3NC(=O)C3(CCC(C)C)CCCCC3)cc2)CCCCC1` [Example 25-48], the IC50 came to 23 µM. On to `CC(C)(C)C(=O)Sc1cc(Cl)c(Cl)cc1NC(=O)C1CCCCC1` [Example 66-25], for which the IC50 was determined as 19 µM. In the case of `CC1(C(=O)Nc2ccccc2SC(=O)Sc2ccccc2)CCCCC1` [Example 55], the IC50 came to 65 µM. As to `CC(C)(C)C(=O)Sc1ccc(Cl)cc1NC(=O)C1(C)CCCCC1` [Example 66-4], the IC50 is 28 µM. `CC(C)CCC1(C(=O)Nc2cc(Cl)c(Cl)cc2SC(=O)c2ccccc2)CCCCC1` [Example 25-81]: the IC50 worked out at 14 µM.

`CC(C)(C)C(=O)Nc1ccccc1SC(=O)Cc1ccccc1[N+](=O)[O-]` [Example 25-7]: the IC50 stood at 46 µM. With `COC(=O)Sc1cc(Cl)c(Cl)cc1NC(=O)C1(C)CCCCC1` [Example 66-52], the IC50 is 46 µM. With `CC(C)(C)C(=O)Sc1cc(Cl)c(Cl)cc1NC(=O)C1(CCC2CC2)CCCCC1` [Example 66-48], the IC50 was 11 µM.

In the case of `CC(C)CCC1(C(=O)Nc2cc(Cl)c(Cl)cc2SC(=O)C2CCCCC2)CCCCC1` [Example 25-82], the IC50 was determined as 17 µM. Still for that read-out and setting: the same measure for `CC(C)(C)C(=O)Nc1ccccc1SC(=O)CCc1ccccc1` [Example 25-14]: 30 µM; for `CC(C)CCC1(C(=O)Nc2cc(Cl)c(Cl)cc2SC(=O)C(C)(C)C)CCC1` [Example 73]: 37 µM. `CC1(C(=O)Nc2cc(C(F)(F)F)ccc2SC(=O)Sc2ccccc2)CCCCC1` [Example 25-93]: the IC50 was 22 µM. Same read-out and setting: the same measure for `CC(C)[C@H]1CC[C@H](C(=O)Nc2cc(Cl)c(Cl)cc2SC(=O)C(C)(C)C)CC1` [Example 66-32]: 22 µM. The same measure, in the same setting: the same measure for `O=C(Nc1ccccc1SSc1ccccc1NC(=O)C12CC3CC(CC(C3)C1)C2)C12CC3CC(CC(C3)C1)C2` [Example 1-12]: 12 µM; for `CC1(C(=O)Nc2ccccc2SC(=O)Sc2ccccc2NC(=O)C2(C)CCCCC2)CCCCC1` [Example 25-95]: 18 µM; for `CC(=O)N[C@@H](Cc1ccccc1)C(=O)Sc1cc(Cl)c(Cl)cc1NC(=O)C1(CCC(C)C)CCCCC1` [Example 25-76]: 36 µM. The same measure, in the same setting: the same measure for `CC(C)CCC1(C(=O)Nc2cc(Cl)c(Cl)cc2SC(=O)c2cccnc2)CCCC1` [Example 25-87]: 6 µM; for `CC(C)CCC1(C(=O)Nc2cc(Cl)c(Cl)cc2SC(=O)C(C)(C)C)CCCCC1` [Example 50]: 2 µM; for `CC1(C(=O)Nc2cc(F)c(F)cc2S)CCCCC1` [Example 19-5]: 17 µM. In the case of `O=C(Nc1ccccc1SSc1ccccc1NC(=O)c1ccccc1)c1ccccc1` [Example 3], the IC50 worked out at 101 µM.

As for `CC1(C(=O)Nc2cc(Cl)ccc2SC(=O)Cc2ccccc2)CCCCC1` [Example 66-3], the IC50 is 24 µM. Consider `CC1(C(=O)Nc2ccc(F)cc2S)CCCCC1` [Example 19-6], for which the IC50 turned out to be 18 µM. As to `O=C(Nc1ccccc1SSc1ccccc1NC(=O)C1CCCCC1)C1CCCCC1` [Example 1-6], the IC50 is 22 µM. Turning to `CC1(C(=O)Nc2ccccc2SC(=O)Cc2ccccc2Cl)CCCCC1` [Example 25-23], the IC50 stood at 25 µM. The same measure, in the same setting: the same measure for `CC(C)CC1(C(=O)Nc2cc(Cl)c(Cl)cc2SC(=O)C(C)(C)C)CCCCC1` [Example 66-42]: 10 µM; for `CC(C)(C)C(=O)Nc1ccccc1SSc1ccccc1NC(=O)C(C)(C)C` [Example 1, bis-[2-(pivaloylamino)phenyl]disulfide]: 20 µM; for `COc1ccc(S)c(NC(=O)C2(C)CCCCC2)c1` [Example 19, N-(2-mercapto-5-methoxyphenyl)-1-methylcyclohexanecarboxamide]: 179 µM. Still for that read-out and setting: the same measure for `CC(C)(C)C(=O)Sc1cc(Cl)c(Cl)cc1NC(=O)c1ccncc1` [Example 66-21]: 41 µM.

As to `CC(C)CC1(C(=O)Nc2cc(Cl)c(Cl)cc2SC(=O)C(C)(C)C)CCCC1` [Example 66-49], the IC50 stood at 40 µM.

For `CC(=O)N[C@@H](Cc1ccccc1)C(=O)Sc1cc(Cl)c(Cl)cc1NC(=O)C1(C)CCCCC1` [Example 66-10], the IC50 worked out at 23 µM.
